Measurements as given in patent publication US20070141687A1, “Increase in stress tolerance with ascorbic acid during fermentation” (priority 2005, published 2007).
Read-outs that look alike come from different tables or passages of the source.

Tests used:
[1] = tested on: YML007w yeast
Description: Yeast strains used were S. cerevisiae GRF18U (Brambilla, L. et al., 1999, FEMS Microb. Lett. 171, 133-140), S. cerevisiae GRFc (Brambilla et al. 1999 FEMS Microb. Lett. 171: 133-140), S. cerevisiae BY4742 (MATα; his3; leu2, lys2; ura3, EuroScarf Accession No. Y10000), S. cerevisiae YML007w (BY4742; MATα; his3; leu2, lys2; ura; YML007w::KanMX4 (the yap1 deleted strain) EuroScarf Accession No. Y10569); CEN.PK 113-5D (MATα ura3-52; cir+) (see, for example, VanDijken et al. (2000) Enzyme Microb. Technol. 26, 706-714); and BY4741 (MATα; his3; leu2; met 15; ura3, Euroscarf Accession No. Y00000), or strains derived from them through transformation with the different developed plasmids. All strains were cultivated in shake flasks in minimal medium (0.67% w/v YNB (Difco Laboratories, Detroit, Mich. #919-15), 2% w/v glucose or mannose, with addition of the appropriate amino acids or adenine or uracil, respectively, to 50 μL-^1) and/or the appropriate antibiotic (G418 or hygromicin to 500 mg/l and 400 mg/l, respectively) under standard conditions (shaking at 30° C.). The initial optical density at 660 nm was about 0.05 for ascorbic acid determination, and 0.1 for the kinetics of the recovery from oxidative stress.
The yeast strains were grown on mineral medium (2% glucose, 0.67% YNB) starting from an OD^660 of 0.1. […]

[2] = tested on: GRFc, BY4741, and CEN.PK 113-5D yeast strains; assay: Growth of wild type yeast strains in medium containing lactic acid at pH 3 with added ascorbic acid; conditions: 2xYNB medium, lactic acid 40 g/l, pH3
Description: Ascorbic acid was added to the medium at the concentrations shown.

[3] = tested on: YML007w yeast; assay: Growth (OD660) of yap1-deleted yeast under H2O2 oxidative stress with ascorbic acid in the medium; type: cell-based, S. cerevisiae; conditions: 0.8 or 1.0 mM H2O2; ascorbic acid added at T=0 at 15 mg/L; minimal medium 2% glucose
Description: FIG. 3A. […] Ascorbic acid was added at T=0 at a final concentration of 15 mg/L. BY4742 (▴); YML007w (◯).
FIG. 3B. […] Ascorbic acid was added at T=0 at a final concentration of 15 mg/L. BY4742 (▴); YML007w (◯).

[4] = tested on: S. cerevisiae strain NRRL Y-30696; assay: Growth and lactic acid production of lactic acid producing yeast with exogenous ascorbic acid; type: cell-based; conditions: minimal glucose medium, 2.78 g/L CaCO3, 0, 0.16, 0.3 or 0.6 g/L ascorbic acid
Description: S. cerevisiae strain NRRL Y-30696 was inoculated in minimal glucose medium and 2.78 g/L CaCO3 or minimal glucose medium with 2.78 g/L CaCO3 and 0.16, 0.3, or 0.6 g/L ascorbic acid. OD660 (open symbols) and lactic acid (closed symbols) were monitored with time. The pH dropped in each case to 2.5 at 67 hours.

SMILES | growth of YML007w yeast host ([1]; 0.8 mM hydrogen peroxide in medium) | growth of YML007w yeast host ([1]; 1 mM hydrogen peroxide in medium) | dose dependence of the effect of ascorbic acid on growth [2] | effect on growth inhibition by lactic acid (OD660) ([2]; zero or increasing ascorbic acid) | growth sensitivity of YML007w yeast to H2O2 (OD660) [3] | lactic acid production [4] | growth as measured by OD660 ([4]; pH dropped to 2.5 at 67 hours)
OO [hydrogen peroxide] | strongly delayed | completely impaired |  |  |  |  | 
O=C1O[C@H]([C@@H](O)CO)C(O)=C1O [ascorbic acid, L-ascorbic acid] |  |  | dose dependent | negative effects of lactic acid on growth can be overcome | can be rescued | equivalent at each level | increased with increasing ascorbic acid
